From patent publication US10266537B2, “3-acetylenyl-pyrazole-pyrimidine derivative, and preparation method therefor and uses thereof” (Si Chuan University, priority 2015, dated 2019)

Columns and labels:
MCF-7 = test: Cell proliferation inhibition assay (MTT); assay type: cell-based; conditions: Homo sapiens, MCF7, 72 hours, read-out: Proliferation inhibitory activity IC50
Procedure: (§1) The cells were seeded in 96-well plates with 200 μL of cell suspension per well and incubated overnight in a cell culture medium with a cell concentration of 1 2×10^4 cells/mL. The next day, the supernatant was discarded (the suspension cell was centrifuged before it) and the cells were treated with gradient concentrations of the test compound, respectively. […] After 72 hours, add 20 μL of MTT reagent at a concentration of 5 mg/mL per well. After incubation for 2-4 h, the supernatant was discarded and 150 μL of DMSO was added to each well. […] Relative cell proliferation inhibition rate=([MUT]-[MUT])×100%/[MUT]. The experiment was repeated at least 3 times. Experimental data were expressed as mean, data statistics using t test, P<0.05 for the difference was statistically significant.

MINK(h) = MINK(h) (Homo sapiens (Human), UniProt Q8N4C8); test: Kinase inhibition assay (KinaseProfiler, 33P-ATP); assay type: biochemical; conditions: read-out: The percentage of the remaining active protein
NEK11(h) = NEK11(h) (Homo sapiens (Human), UniProt Q8NG66); test: Kinase inhibition assay (KinaseProfiler, 33P-ATP); assay type: biochemical; conditions: read-out: The percentage of the remaining active protein
PIP4K2a(h) = PIP4K2a(h) (Homo sapiens (Human), UniProt P48426); test: Kinase inhibition assay (KinaseProfiler, 33P-ATP); assay type: biochemical; conditions: read-out: The percentage of the remaining active protein
SAPK2a(T106M)(h) = SAPK2a(T106M)(h) (Homo sapiens (Human), UniProt Q16539, T106M); test: Kinase inhibition assay (KinaseProfiler, 33P-ATP); assay type: biochemical; conditions: read-out: The percentage of the remaining active protein
CDK5/p35(h) = CDK5/p35(h) (Homo sapiens (Human), UniProt Q00535); test: Kinase inhibition assay (KinaseProfiler, 33P-ATP); assay type: biochemical; conditions: read-out: The percentage of the remaining active protein
CLK1(h) = CLK1(h) (Homo sapiens (Human), UniProt P49759); test: Kinase inhibition assay (KinaseProfiler, 33P-ATP); assay type: biochemical; conditions: read-out: The percentage of the remaining active protein
PrKX(h) = PrKX(h) (Homo sapiens (Human), UniProt P51817); test: Kinase inhibition assay (KinaseProfiler, 33P-ATP); assay type: biochemical; conditions: read-out: The percentage of the remaining active protein
MAPK2(m) = MAPK2(m) (Mus musculus (Mouse), UniProt P63085); test: Kinase inhibition assay (KinaseProfiler, 33P-ATP); assay type: biochemical; conditions: read-out: The percentage of the remaining active protein
WNK2(h) = WNK2(h) (Homo sapiens (Human), UniProt Q9Y3S1); test: Kinase inhibition assay (KinaseProfiler, 33P-ATP); assay type: biochemical; conditions: read-out: The percentage of the remaining active protein
IRAK1(h) = IRAK1(h) (Homo sapiens (Human), UniProt P51617); test: Kinase inhibition assay (KinaseProfiler, 33P-ATP); assay type: biochemical; conditions: read-out: The percentage of the remaining active protein
PAK5(h) = PAK5(h) (Homo sapiens (Human), UniProt Q9P286); test: Kinase inhibition assay (KinaseProfiler, 33P-ATP); assay type: biochemical; conditions: read-out: The percentage of the remaining active protein
MELK(h) = MELK(h) (Homo sapiens (Human), UniProt Q14680); test: Kinase inhibition assay (KinaseProfiler, 33P-ATP); assay type: biochemical; conditions: read-out: The percentage of the remaining active protein
PKCε(h) = PKCε(h) (Homo sapiens (Human), UniProt Q02156); test: Kinase inhibition assay (KinaseProfiler, 33P-ATP); assay type: biochemical; conditions: read-out: The percentage of the remaining active protein
GCN2(h) = GCN2(h) (Homo sapiens (Human), UniProt Q9P2K8); test: Kinase inhibition assay (KinaseProfiler, 33P-ATP); assay type: biochemical; conditions: read-out: The percentage of the remaining active protein
PANC-1 = test: Cell proliferation inhibition assay (MTT); assay type: cell-based; conditions: Homo sapiens, 72 hours, read-out: Proliferation inhibitory activity IC50
Procedure: as §1

[1] = molecular target: PI3 Kinase (p110b/p85a)(m) (Mus musculus (Mouse), UniProt Q8BTI9); test: Kinase inhibition assay (KinaseProfiler, 33P-ATP); assay type: biochemical; conditions: read-out: The percentage of the remaining active protein
LTK(h) = LTK(h) (Homo sapiens (Human), UniProt P29376); test: Kinase inhibition assay (KinaseProfiler, 33P-ATP); assay type: biochemical; conditions: read-out: The percentage of the remaining active protein
[2] = molecular target: PI3 Kinase (p110a(H1047R)/p85a)(h) (Homo sapiens (Human), UniProt P42336, H1047R); test: Kinase inhibition assay (KinaseProfiler, 33P-ATP); assay type: biochemical; conditions: read-out: The percentage of the remaining active protein
CK1(y) = test: Kinase inhibition assay (KinaseProfiler, 33P-ATP); assay type: biochemical, yeast; conditions: 10 μM
SAPK3(h) = SAPK3(h) (Homo sapiens (Human), UniProt P53778); test: Kinase inhibition assay (KinaseProfiler, 33P-ATP); assay type: biochemical; conditions: read-out: The percentage of the remaining active protein
CDK9/cyclin T1(h) = CDK9/cyclin T1(h) (Homo sapiens (Human), UniProt P50750); test: Kinase inhibition assay (KinaseProfiler, 33P-ATP); assay type: biochemical; conditions: read-out: The percentage of the remaining active protein
Ros(h) = Ros(h) (Homo sapiens (Human), UniProt P08922); test: Kinase inhibition assay (KinaseProfiler, 33P-ATP); assay type: biochemical; conditions: read-out: The percentage of the remaining active protein
MSK1(h) = MSK1(h) (Homo sapiens (Human), UniProt O75582); test: Kinase inhibition assay (KinaseProfiler, 33P-ATP); assay type: biochemical; conditions: read-out: The percentage of the remaining active protein
SAPK2b = SAPK2b (Homo sapiens (Human), UniProt Q15759); test: Kinase inhibition assay (KinaseProfiler, 33P-ATP); assay type: biochemical
ZIPK(h) = ZIPK(h) (Homo sapiens (Human), UniProt O43293); test: Kinase inhibition assay (KinaseProfiler, 33P-ATP); assay type: biochemical; conditions: read-out: The percentage of the remaining active protein
Arg(m) = Arg(m) (Mus musculus (Mouse), UniProt Q4JIM5); test: Kinase inhibition assay (KinaseProfiler, 33P-ATP); assay type: biochemical; conditions: read-out: The percentage of the remaining active protein
CHK2(h) = CHK2(h) (Homo sapiens (Human), UniProt O96017); test: Kinase inhibition assay (KinaseProfiler, 33P-ATP); assay type: biochemical; conditions: read-out: The percentage of the remaining active protein
IRR(h) = IRR(h) (Homo sapiens (Human), UniProt P14616); test: Kinase inhibition assay (KinaseProfiler, 33P-ATP); assay type: biochemical; conditions: read-out: The percentage of the remaining active protein
[3] = molecular target: PI3 Kinase (p110a(E545K)/p85a)(m) (Mus musculus (Mouse), UniProt P42337, E545K); test: Kinase inhibition assay (KinaseProfiler, 33P-ATP); assay type: biochemical; conditions: read-out: The percentage of the remaining active protein
ALK1(h) = ALK1(h) (Homo sapiens (Human), UniProt P37023); test: Kinase inhibition assay (KinaseProfiler, 33P-ATP); assay type: biochemical; conditions: read-out: The percentage of the remaining active protein
ROCK-II(h) = ROCK-II(h) (Homo sapiens (Human), UniProt O75116); test: Kinase inhibition assay (KinaseProfiler, 33P-ATP); assay type: biochemical; conditions: read-out: The percentage of the remaining active protein
SMMC7721 = test: Cell proliferation inhibition assay (MTT); assay type: cell-based; conditions: Homo sapiens, SMMC-7721, 72 hours, read-out: Proliferation inhibitory activity IC50
Procedure: as §1

Fms(Y969C)(h) = Fms(Y969C)(h) (Homo sapiens (Human), UniProt P07333, Y969C); test: Kinase inhibition assay (KinaseProfiler, 33P-ATP); assay type: biochemical; conditions: read-out: The percentage of the remaining active protein
MST1(h) = MST1(h) (Homo sapiens (Human), UniProt Q13043); test: Kinase inhibition assay (KinaseProfiler, 33P-ATP); assay type: biochemical; conditions: read-out: The percentage of the remaining active protein
ATR/ATRIP(h) = ATR/ATRIP(h) (Homo sapiens (Human), UniProt Q13535); test: Kinase inhibition assay (KinaseProfiler, 33P-ATP); assay type: biochemical; conditions: read-out: The percentage of the remaining active protein
Chain of ATR/ATRIP(h) (Q13535 whole entry): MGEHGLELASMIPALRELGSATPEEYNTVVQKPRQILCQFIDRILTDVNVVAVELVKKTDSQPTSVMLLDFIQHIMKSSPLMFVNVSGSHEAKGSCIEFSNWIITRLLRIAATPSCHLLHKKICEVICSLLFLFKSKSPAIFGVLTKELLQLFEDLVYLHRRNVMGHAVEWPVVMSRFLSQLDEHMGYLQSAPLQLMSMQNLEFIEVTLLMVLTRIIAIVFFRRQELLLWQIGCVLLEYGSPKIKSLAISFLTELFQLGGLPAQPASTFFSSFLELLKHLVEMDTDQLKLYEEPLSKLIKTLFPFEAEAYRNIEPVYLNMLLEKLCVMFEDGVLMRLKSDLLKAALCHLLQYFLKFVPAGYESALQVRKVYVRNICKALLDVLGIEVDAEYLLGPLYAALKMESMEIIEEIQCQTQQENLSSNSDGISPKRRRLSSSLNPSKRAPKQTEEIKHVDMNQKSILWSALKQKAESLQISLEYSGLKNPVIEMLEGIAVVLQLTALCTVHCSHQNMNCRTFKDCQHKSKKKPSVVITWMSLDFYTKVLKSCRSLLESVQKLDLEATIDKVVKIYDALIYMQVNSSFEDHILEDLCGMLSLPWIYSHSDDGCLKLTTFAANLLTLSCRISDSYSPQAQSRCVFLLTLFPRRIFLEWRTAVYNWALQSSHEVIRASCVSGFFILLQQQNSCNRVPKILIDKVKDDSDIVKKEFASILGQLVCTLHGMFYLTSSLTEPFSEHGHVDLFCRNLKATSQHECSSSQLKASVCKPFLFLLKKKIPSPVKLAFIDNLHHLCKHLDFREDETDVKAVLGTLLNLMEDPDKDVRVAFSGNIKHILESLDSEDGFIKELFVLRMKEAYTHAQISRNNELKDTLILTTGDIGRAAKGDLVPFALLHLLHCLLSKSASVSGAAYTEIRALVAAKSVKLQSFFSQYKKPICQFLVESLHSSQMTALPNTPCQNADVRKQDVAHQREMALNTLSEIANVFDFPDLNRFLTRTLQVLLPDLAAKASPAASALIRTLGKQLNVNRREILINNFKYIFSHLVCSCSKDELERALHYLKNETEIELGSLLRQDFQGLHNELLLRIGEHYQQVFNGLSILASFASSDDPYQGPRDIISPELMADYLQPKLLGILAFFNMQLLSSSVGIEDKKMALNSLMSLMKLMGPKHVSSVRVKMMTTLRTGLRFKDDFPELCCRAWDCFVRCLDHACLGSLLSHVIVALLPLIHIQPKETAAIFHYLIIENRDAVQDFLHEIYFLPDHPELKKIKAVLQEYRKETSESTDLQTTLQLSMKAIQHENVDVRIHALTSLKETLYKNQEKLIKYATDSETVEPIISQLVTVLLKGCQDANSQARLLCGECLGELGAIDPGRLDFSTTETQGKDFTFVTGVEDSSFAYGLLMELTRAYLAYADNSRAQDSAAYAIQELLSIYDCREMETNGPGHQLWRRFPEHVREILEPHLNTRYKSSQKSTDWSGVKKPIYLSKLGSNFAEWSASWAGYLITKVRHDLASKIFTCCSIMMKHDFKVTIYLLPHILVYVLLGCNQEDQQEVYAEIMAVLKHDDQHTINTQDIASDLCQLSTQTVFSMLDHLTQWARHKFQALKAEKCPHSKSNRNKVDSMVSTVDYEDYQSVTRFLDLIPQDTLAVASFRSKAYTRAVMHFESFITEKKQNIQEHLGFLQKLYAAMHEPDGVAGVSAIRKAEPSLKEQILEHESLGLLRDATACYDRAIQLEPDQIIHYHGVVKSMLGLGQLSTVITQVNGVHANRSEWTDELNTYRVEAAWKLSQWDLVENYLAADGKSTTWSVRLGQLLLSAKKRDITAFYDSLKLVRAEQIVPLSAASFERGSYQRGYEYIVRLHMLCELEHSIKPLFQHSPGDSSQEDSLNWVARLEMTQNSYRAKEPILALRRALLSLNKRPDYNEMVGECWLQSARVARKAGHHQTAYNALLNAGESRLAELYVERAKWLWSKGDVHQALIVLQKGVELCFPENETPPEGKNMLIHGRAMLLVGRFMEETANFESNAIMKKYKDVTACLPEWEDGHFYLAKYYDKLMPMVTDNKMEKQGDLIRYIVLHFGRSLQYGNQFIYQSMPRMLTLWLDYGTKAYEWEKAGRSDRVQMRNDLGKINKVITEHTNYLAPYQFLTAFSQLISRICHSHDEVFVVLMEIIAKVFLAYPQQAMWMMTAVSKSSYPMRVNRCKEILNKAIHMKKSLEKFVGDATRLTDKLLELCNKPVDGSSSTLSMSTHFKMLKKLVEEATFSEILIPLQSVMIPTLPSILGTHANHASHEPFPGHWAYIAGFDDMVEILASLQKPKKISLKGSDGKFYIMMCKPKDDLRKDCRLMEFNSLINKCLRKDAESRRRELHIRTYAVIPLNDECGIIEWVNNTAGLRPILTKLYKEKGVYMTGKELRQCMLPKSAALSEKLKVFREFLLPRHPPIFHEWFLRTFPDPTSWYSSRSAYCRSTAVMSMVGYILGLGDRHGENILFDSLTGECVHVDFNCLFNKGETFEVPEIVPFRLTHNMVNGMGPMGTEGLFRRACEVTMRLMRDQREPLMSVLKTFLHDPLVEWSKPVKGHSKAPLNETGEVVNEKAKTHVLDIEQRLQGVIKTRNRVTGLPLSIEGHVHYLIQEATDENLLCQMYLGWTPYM
Chain of ATR/ATRIP(h) (Q8WXE1 whole entry partner): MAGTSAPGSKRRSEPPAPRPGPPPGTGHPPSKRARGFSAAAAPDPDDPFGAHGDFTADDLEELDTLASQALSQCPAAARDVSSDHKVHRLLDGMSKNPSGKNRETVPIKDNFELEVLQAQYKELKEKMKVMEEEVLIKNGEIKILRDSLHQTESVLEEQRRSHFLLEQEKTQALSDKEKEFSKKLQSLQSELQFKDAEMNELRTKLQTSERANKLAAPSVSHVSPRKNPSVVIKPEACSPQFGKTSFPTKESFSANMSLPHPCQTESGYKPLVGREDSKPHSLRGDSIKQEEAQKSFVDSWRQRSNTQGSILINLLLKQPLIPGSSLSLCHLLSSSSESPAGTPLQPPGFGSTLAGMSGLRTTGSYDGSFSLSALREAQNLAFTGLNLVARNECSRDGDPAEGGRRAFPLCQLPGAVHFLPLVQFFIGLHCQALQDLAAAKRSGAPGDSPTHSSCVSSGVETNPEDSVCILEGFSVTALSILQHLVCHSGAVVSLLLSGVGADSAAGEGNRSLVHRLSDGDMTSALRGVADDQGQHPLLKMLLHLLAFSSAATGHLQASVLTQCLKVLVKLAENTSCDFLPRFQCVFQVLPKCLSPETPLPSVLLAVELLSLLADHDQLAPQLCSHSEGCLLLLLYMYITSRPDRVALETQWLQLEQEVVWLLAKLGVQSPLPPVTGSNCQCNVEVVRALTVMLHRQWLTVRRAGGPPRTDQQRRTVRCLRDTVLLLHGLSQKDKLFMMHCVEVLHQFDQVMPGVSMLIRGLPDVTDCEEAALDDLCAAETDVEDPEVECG

Chain of SAPK2b (Q15759 whole entry): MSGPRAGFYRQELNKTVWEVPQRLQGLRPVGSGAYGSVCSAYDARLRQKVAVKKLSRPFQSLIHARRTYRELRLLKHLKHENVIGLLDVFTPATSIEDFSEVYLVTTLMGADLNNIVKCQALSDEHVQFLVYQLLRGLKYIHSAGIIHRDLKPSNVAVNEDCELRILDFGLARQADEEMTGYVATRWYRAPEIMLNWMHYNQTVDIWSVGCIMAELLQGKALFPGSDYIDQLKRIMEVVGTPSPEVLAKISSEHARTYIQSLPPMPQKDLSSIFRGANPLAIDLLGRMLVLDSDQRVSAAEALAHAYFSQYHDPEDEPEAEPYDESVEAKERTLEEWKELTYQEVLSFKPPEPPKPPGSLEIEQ
Chain of LTK(h) (P29376 17-864): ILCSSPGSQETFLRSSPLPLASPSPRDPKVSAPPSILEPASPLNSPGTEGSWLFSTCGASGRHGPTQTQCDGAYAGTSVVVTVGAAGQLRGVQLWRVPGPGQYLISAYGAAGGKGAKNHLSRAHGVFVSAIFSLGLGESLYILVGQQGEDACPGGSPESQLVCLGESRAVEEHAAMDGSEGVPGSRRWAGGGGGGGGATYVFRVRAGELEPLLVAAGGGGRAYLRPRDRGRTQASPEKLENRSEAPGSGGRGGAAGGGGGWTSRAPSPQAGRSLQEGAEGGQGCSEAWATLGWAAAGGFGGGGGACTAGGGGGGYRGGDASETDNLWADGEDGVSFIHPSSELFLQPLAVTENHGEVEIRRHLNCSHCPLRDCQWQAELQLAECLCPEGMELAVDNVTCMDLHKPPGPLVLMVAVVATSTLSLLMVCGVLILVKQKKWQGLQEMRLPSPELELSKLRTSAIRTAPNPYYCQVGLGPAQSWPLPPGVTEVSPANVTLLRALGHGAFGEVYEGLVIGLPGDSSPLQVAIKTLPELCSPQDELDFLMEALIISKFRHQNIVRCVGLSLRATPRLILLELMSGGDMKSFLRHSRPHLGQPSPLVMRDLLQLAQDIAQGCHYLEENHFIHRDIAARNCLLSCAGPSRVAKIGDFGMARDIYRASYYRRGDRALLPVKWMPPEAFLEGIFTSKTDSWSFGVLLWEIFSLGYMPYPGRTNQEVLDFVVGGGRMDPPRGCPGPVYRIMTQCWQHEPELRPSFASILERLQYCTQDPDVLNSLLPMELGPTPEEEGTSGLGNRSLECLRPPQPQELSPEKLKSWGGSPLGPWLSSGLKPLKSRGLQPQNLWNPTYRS
Chain of PrKX(h) (P51817 whole entry): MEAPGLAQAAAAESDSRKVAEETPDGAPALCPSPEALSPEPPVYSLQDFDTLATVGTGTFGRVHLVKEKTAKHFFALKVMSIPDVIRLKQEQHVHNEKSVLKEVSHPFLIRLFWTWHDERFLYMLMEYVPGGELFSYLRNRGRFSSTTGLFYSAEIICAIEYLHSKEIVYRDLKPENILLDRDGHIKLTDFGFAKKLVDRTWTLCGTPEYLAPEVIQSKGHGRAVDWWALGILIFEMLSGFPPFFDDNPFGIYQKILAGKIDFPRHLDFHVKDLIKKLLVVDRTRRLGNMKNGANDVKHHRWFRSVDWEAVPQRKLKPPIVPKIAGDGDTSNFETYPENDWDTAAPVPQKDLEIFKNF

SMILES: Cc1ccc(NC(=O)c2cccc(C(F)(F)F)c2)cc1C#Cc1nn(C2CCN(C)CC2)c2ncnc(N)c12 [Compound 31]
- IC50 (MCF-7): 1990 nM

SMILES: Cc1ccc(NC(=O)c2ccc(C)c(C(F)(F)F)c2)cc1C#Cc1nn([C@H]2CC[C@H](O)CC2)c2ncnc(N)c12 [Compound 93]
- remaining activity at 10 µM (MINK(h)): 25%
- remaining activity at 10 µM (NEK11(h)): 50%
- remaining activity at 10 µM (PIP4K2a(h)): 100%
- remaining activity at 10 µM (SAPK2a(T106M)(h)): 88%
- remaining activity at 10 µM (CDK5/p35(h)): 127%
- remaining activity at 10 µM (CLK1(h)): 64%
- remaining activity at 10 µM (PrKX(h)): 105%
- remaining activity at 10 µM (MAPK2(m)): 101%
- remaining activity at 10 µM (WNK2(h)): 105%
- remaining activity at 10 µM (IRAK1(h)): 30%
- remaining activity at 10 µM (PAK5(h)): 89%
- remaining activity at 10 µM (MELK(h)): 23%
- remaining activity at 10 µM (PKCε(h)): 117%
- remaining activity at 10 µM (GCN2(h)): 50%
- IC50 (PANC-1): 1700 to 5000 nM
- remaining activity at 10 µM [1]: 84%
- remaining activity at 10 µM (LTK(h)): 73%
- remaining activity at 10 µM [2]: 89%
- The percentage of the remaining active protein (CK1(y)): 86%
- remaining activity at 10 µM (SAPK3(h)): 68%
- remaining activity at 10 µM (CDK9/cyclin T1(h)): 113%
- remaining activity at 10 µM (Ros(h)): 82%
- remaining activity at 10 µM (MSK1(h)): 95%
- remaining activity at 10 µM (SAPK2b; SAPK2b(h), 10 μM, read-out: The percentage of the remaining active protein): -2%
- IC50 (SAPK2b; SAPK2b, ATP at Km): 84 nM
- remaining activity at 10 µM (ZIPK(h)): 110%
- remaining activity at 10 µM (Arg(m)): -1%
- remaining activity at 10 µM (CHK2(h)): 111%
- remaining activity at 10 µM (IRR(h)): 107%
- remaining activity at 10 µM [3]: 87%
- remaining activity at 10 µM (ALK1(h)): 71%
- remaining activity at 10 µM (ROCK-II(h)): 56%
- IC50 (SMMC7721): > 10000 nM
- remaining activity at 10 µM (Fms(Y969C)(h)): 13%
- remaining activity at 10 µM (MST1(h)): 109%
- remaining activity at 10 µM (ATR/ATRIP(h)): 94%
